Source: patent publication EP1268431B1 (Wyeth, priority 2000, dated 2001)
pIC50: −log10 of the molar value. Several values for one entry are separate records, joined by “and”; a condition that tells them apart may be missing. Identical values can stand only once. Like-named read-outs stand apart in the source and are kept apart here.

What was measured:
[1] = system: Rat2 fibroblasts stably transformed with a plasmid containing a CMV promotor controlled v-Src/Hu c-Src fusion gene; assay: Anchorage Independent Src-transformed Fibroblast Proliferation Assay
[2] = molecular target: T1, c-Src (Homo sapiens, UniProt P12931); assay: c-Src Kinase Assay (ELISA format); format: biochemical
T1 construct: purchased Upstate Biotechnologies
Procedure: Inhibitors of Src (partially purified preparation purchased from Upstate Biotechnologies) tyrosine kinase activity are analyzed in an ELISA format. […] Horseradish Peroxidase (HRP)-conjugated anti-phosphotyrosine is used to detect phosphorylated peptide via a color reaction. Conditions recommended by the manufacturer are employed.
Reaction conditions: Five microliter aliquots of each compound prepared fresh at the time of the assay are added as a solution in 10mM HEPES pH 7.5, 10% DMSO to the reaction well. Thirty-five microliters of reaction mix containing Src, buffer and peptide/bovine serum albumin mix are added to the compound wells and incubated at 30°C for 10 minutes (reaction buffer: 50mM TrisHCl pH 7.5, 10mM MgCl2, 0.1mM EGTA, 0.5mM Na3VO4). The reaction is started by addition of 10 microliters of ATP, incubated at 30°C for 1 hour, and stopped by addition of 20 microliters of 0.5M EDTA. The reaction mixture with the phosphorylated peptide is then transferred to a streptavidin-coated microtiter plate (provided in the kit) and allowed to bind for 20 minutes. Unbound peptide and reaction mixture is decanted and the plate is washed with PBS six times. HRP-conjugated phosphotyrosine antibody supplied in the kit is incubated with the plate for one hour, then decanted. The plate is again washed with PBS six times.
Activity is determined as % inhibition as calculated by the formula: (1 - Abs/Abs(max)) x 100 = % inhibition.

[3] = Rattus norvegicus, Rat2, 120 h, read-out: anch-indep src-tx fib IC50
[4] = read-out: anch-indep src-tx fib IC50, suspension growth, MTS on Day 5
[5] = Rattus norvegicus, Rat2, 120 h, read-out: anch-indep src-tx fib IC50, suspension growth, MTS on Day 5

| Compound | pIC50 [2] | also measured |
| --- | --- | --- |
| COc1cc(Nc2c(C#N)cnc3cc(-c4ccc(CN5CCOCC5)cn4)ccc23)c(Cl)cc1Cl [Example 57, 4-(2,4-Dichloro-5-methoxyanilino)-7-[5-(4-morpholinylmethyl)-2-pyridinyl]-3-quinolinecarbonitrile] | – | pIC50 [1, 3]: 7.30 |
| COc1cc(Nc2c(C#N)cnc3cc(-c4ccc(CN5CCOCC5)c(CN5CCOCC5)c4)ccc23)c(Cl)cc1Cl [Example 34, 7-[3,4-Bis(4-morpholinylmethyl)phenyl]-4-(2,4-dichloro-5-methoxyanilino)-3-quinolinecarbonitrile] | 8.52 | – |
| COc1cc(Nc2c(C#N)cnc3cc(-c4ccc(CN5CCN(C)CC5)o4)ccc23)c(Cl)cc1Cl [Example 41] | – | pIC50 [1, 3]: 6.42 |
| COc1cc(Nc2c(C#N)cnc3cc(-c4cccc(CN5CCOCC5)c4)ccc23)c(Cl)cc1Cl [Example 26, 4-(2.4-Dichloro-5-methoxyanilino)-7-[3-(4-morpholinylmethyl)phenyl]-3-quinolinecarbonitrile] | 7.62 | – |
| COc1cc(Nc2c(C#N)cnc3cc(-c4cccc([N+](=O)[O-])c4)ccc23)c(Cl)cc1Cl [Example 122, 4-(2,4-Dichloro-5-methoxyanilino)-7-(3-nitrophenyl)-3-guinolinecarbonitrile] | – | inhibition at 10 µM ([2]; at 10 µM): 44% |
| 4-(2,4-dichloro-5-methoxyanilino)-7-{4-[(4-methyl-1-piperazinyl)]phenyl}-3-quinolinecarbonitrile [Example 218] | – | pIC50 [1, 4]: 6.22 |
| CCN1CCN(Cc2ccc(-c3cc4ncc(C#N)c(Nc5cc(OC)c(Cl)cc5Cl)c4cc3OC)cc2)CC1 [Example 31, 4-(2,4-Dichloro-5-methoxyanilino)-7-{4-[(4-ethyl-1-piperazinyl)methyl]phenyl}-6-methoxy-3-quinolinecarbonitrile] | 8.08 and 8.25 | – |
| N#Cc1cnc2cc(-c3csc(CN4CCOCC4)c3)ccc2c1Nc1ccc(Cl)cc1F [Example 1, 4-(4-Chloro-2-fluoroanilino)-7-[5-(4-morpholinylmethyl)-3-thienyl]-3-quinolinecarbonitrile] | 7.60 | – |
| COc1cc(Nc2c(C#N)cnc3cc(-c4ccc(CCN5CCOCC5)cc4)ccc23)c(Cl)cc1Cl [Example 27, 4-(2,4-Dichloro-5-methoxyanilino)-7-{4-[2-(4-morpholinyl)ethyl]phenyl}1-3-quinolinecarbonitrile] | – | pIC50 [1, 5]: 5.99 |
| COc1cc(Nc2c(C#N)cnc3cc(-c4ccc(CN5CCSCC5)cc4)ccc23)c(Cl)cc1Cl [Example 153, 4-[(2,4-dichloro-5-methoxyphenyl)amino]-7-[4-(4-thiomorpholinylmethyl)phenyl]-3-quinolinecarbonitrile] | – | pIC50 [1, 5]: 5.55; pIC50 [1, 4]: 5.57 |
| N#Cc1cnc2cc(C#CCO)ccc2c1Nc1ccc(Cl)cc1Cl [Example 14, 4-(2,4-Dichloroanilino)-7-(3-hydroxy-1-propynyl)-3-quinolinecarbonitrile] | – | inhibition at 1 µM ([2]; at 1 µM): 40% |
| CCN1CCN(Cc2ccc(-c3ccc4c(Nc5cc(OC)c(Cl)cc5Cl)c(C#N)cnc4c3)cc2)CC1 [Example 30, 4-(2,4-Dichloro-5-methoxyanilino)-7-{4-[(4-ethyl-1-piperazinyl)methyl]phenyl}-3-quinolinecarbonitrile] | 8.36 and 8.82 | – |
| COc1cc(Nc2c(C#N)cnc3cc(-c4cccc(CN5CCOCC5)c4)c(OC)cc23)c(Cl)cc1Cl [Example 39, 4-(2,4-Dichloro-5-methoxyanilino)-6-methoxy-7-[3-(4-morpholinylmethyl]phenyl}-3-quinolinecarbonitrile] | 6.66 | – |
| COc1cc(Nc2c(C#N)cnc3cc(-c4ccc(/C=C/CN5CCOCC5)s4)ccc23)c(Cl)cc1Cl [Example 21, 4-(2,4-Dichloro-5-methoxyanilino)-7-{5-[(E)-3-(4-morpholinyl)-1-propenyl]-2-thienyl}-3-quinolinecarbonitrile] | 7.40 and 8.05 | – |
| N#Cc1cnc2cc(-c3ccc(-c4ccccn4)s3)ccc2c1Nc1ccc(Cl)cc1Cl [Example 18, 4-(2,4-Dichloroanilino)-7-[5-(2-pyridinyl)-2-thienyl]-3-quinolinecarbonitrile] | 6.74 | – |

The next lines start with results.

| pIC50 [2] | Compound | also measured |
| --- | --- | --- |
| 6.95 | COc1cc(Nc2c(C#N)cnc3ccc(-c4csc(CN5CCOCC5)c4)cc23)c(Cl)cc1Cl [Example 50, 4-(2.4-Dichloro-5-methoxyanilino)-6-[5-(4-morpholinylmethyl)-3-thienyl]3-quinolinecarbonitrile] | – |
| 8.72 | COc1cc(Nc2c(C#N)cnc3cc(-c4ccc(N5CCN(C)CC5)nc4)ccc23)c(Cl)cc1Cl [Example 198, 4-(2,4-dichloro-5-methoxyanilino)-7-[6-(4-methyl-1-piperazinyl)-3-pyridinyl]-3-quinolinecarbonitrile] | – |
| 9.16 | COc1cc(Nc2c(C#N)cnc3cc(-c4ccc(CN5CCC(C(=O)O)CC5)cn4)ccc23)c(Cl)cc1Cl [Example 177, 1-{6-[3-cyano-4-(2,4-dichloro-5-methoxyphenylamino)-quinolin-7yl]-pyridin-3-ylmethyl}-piperidine-4-carboxylic acid] | – |
| 8.82 | COc1cc(Nc2c(C#N)cnc3cc(-c4cc(CN5CCOCC5)cs4)ccc23)c(Cl)cc1Cl [Example 68, 4-(2,4-Dichloro-5-methoxyanilino)-7-[4-(4-morpholinylmethyl)-2-thienyl]-3-quinolinecarbonitrile] | – |
| 7.55 | COc1cc(Nc2c(C#N)cnc3cc(-c4cnc(CN5CCN(C)CC5)n4C)c(OC)cc23)c(Cl)cc1Cl [Example 233, 4-(2,4-dichloro-5-methoxyanilino)-6-methoxy-7-{1-methyl-2-[(4-methyl-1-piperazinyl)methyl]-1H-imidazol-5-yl}-3-quinolinecarbonitrile] | – |
| 7.51 | COc1cc(Nc2c(C#N)cnc3cc(-c4cnc(CN5CCOCC5)n4C)ccc23)c(Cl)cc1Cl [Example 226, 4-(2,4-dichloro-5-methoxyanilino)-7-[1-methyl-2-(4-morpholinylmethyl)-1H-imidazol-5-yl]-3-quinolinecarbonitrile] | – |
| 6.62 | COc1cc(Nc2c(C#N)cnc3cc(-c4cnc(C=O)n4C)ccc23)c(Cl)cc1Cl [Example 96, 4-(2,4-Dichloro-5-methoxyanilino)-7-(2-formyl-1-methyl-1H-imidazol-5-yl)-3-quinolinecarbonitrile] | – |
| 7.60 | N#Cc1cnc2cc(-c3csc(C=O)c3)ccc2c1Nc1ccc(Cl)cc1Cl [Example 44, 4-(2,4-Dichloroanilino)-7-(5-formyl-3-thienyl)-3-quinolinecarbonitrile] | – |
| 7.92 and 7.82 | 4-(2,4-Dichloro-5-methoxyanilino)-6-methoxy-7-(1H-pyrrol-1-yl)-3-quinolinecarbonitrile [Example 59] | – |
| 8.33 | COc1cc(Nc2c(C#N)cnc3cc(-c4ccc(CN5CC[S+]([O-])CC5)cc4)ccc23)c(Cl)cc1Cl [Example 151, 4-[(2,4-dichloro-5-methoxyphenyl)amino]-7-{4-[(1-oxido-4-thiomorpholinyl)methyl]phenyl}-3-quinolinecarbonitrile] | – |
| 8.47 | COc1cc(Nc2c(C#N)cnc3cc(-c4ccc(N5CCOCC5)nc4)ccc23)c(Cl)cc1Cl [Example 185, 4-(2,4-dichloro-5-methoxyanilino)-7-[6-(4-morpholinyl)-3-pyridinyl]-3-quinolinecarbonitrile] | – |
| 8.36 | CCN1CCN(c2ccc(-c3ccc4c(Nc5cc(OC)c(Cl)cc5Cl)c(C#N)cnc4c3)cn2)CC1 [Example 197, 4-(2,4-dichloro-5-methoxyanilino)-7-[6-(4-ethyl-1-piperazinyl)-3-pyridinyl]-3-quinolinecarbonitrile] | – |
| 8.57 | COc1cc(Nc2c(C#N)cnc3cc(-c4csc(C5OCCO5)c4)ccc23)c(Cl)cc1Cl [Example 42, 4-(2,4-Dichloro-5-methoxyanilino)-7-[5-(1,3-dioxolan-2-yl)-3-thienyl]-3-quinolinecarbonitrile] | – |
| 8.00 | COc1cc(Nc2c(C#N)cnc3cc(-c4ccc(CCN5CCOCC5)cc4)c(OC)cc23)c(Cl)cc1Cl [Example 40, 4-(2,4-Dichloro-5-methoxyanilino)-6-methoxy-7-{4-[2-(4-morpholinyl)ethyl]phenyl}-3-quinolinecarbonitrile] | – |
| 8.77 | COc1cc(Nc2c(C#N)cnc3cc(-c4csc(C=O)c4)ccc23)c(Cl)cc1Cl [Example 43, 4-(2,4-Dichloro-5-methoxyanilino)-7-(5-formyl-3-thienyl)-3-quinolinecarbonitrile] | – |
| 7.29 | COc1cc(Nc2c(C#N)cnc3ccc(-c4csc(C=O)c4)cc23)c(Cl)cc1Cl [Example 45, 4-(2,4-Dichloro-5-methoxyanilino)-6-(5-formyl-3-thienyl)-3-quinolinecarbonitrile] | – |
| 7.60 | COc1cc(Nc2c(C#N)cnc3cc(-c4cnc(CN5CCN(C)CC5)n4C)ccc23)c(Cl)cc1Cl [Example 227, 4-(2,4-dichloro-5-methoxyanilino)-7-{1-methyl-2-[(4-methyl-1-piperazinyl)methyl]-1H-imidazol-5-yl}-3-quinolinecarbonitrile] | – |
